Laboratory results from patent EP2599815B1, “POLYCARBOXYLIC ACID CONDENSATE, THERMOSETTING RESIN COMPOSITION, SUBSTRATE FOR MOUNTING SEMICONDUCTOR ELEMENT AND PROCESS FOR PRODUCING SAME, AND SEMICONDUCTOR DEVICE” (Hitachi Chemical Co., Ltd., priority 2010, dated 2012).
Values after ≈ are worked out from the molar mass of the structure shown. Like-named read-outs stand apart in the source and are kept apart here.

How the values were obtained:
[1] = Solubility in water at 30°C of carboxyl group-containing compounds; conditions: for solubility: distilled water, 30 °C, water, thermodynamic from solid

| Compound | solubility [1] [mg/mL] | further results |
| --- | --- | --- |
| O=C(O)C1CCCCC1C(=O)O (stereo not drawn) [hexahydrophthalic acid] | 1.5 (≈ 8.71 mM) |  |
| O=C(O)C1CCC(C(=O)O)C(C(=O)O)C1 (stereo not drawn) [hydrogenated trimellitic acid] |  | solubility in water (30°C) ([1]; weight of solute per 1 L of distilled water in a saturated aqueous solution at 30°C): 300 mg/mL (≈ 1390 mM) |
| O=C(O)/C=C\C(=O)O [maleic acid] | 800 (≈ 6890 mM) |  |
| O=C(O)c1ccccc1C(=O)O [phthalic acid] | 9 (≈ 54.2 mM) |  |
| O=C(O)c1ccc(C(=O)O)c(C(=O)O)c1 [trimellitic acid] | 20 (≈ 95.2 mM) |  |
| tetrahydrophthalic acid |  | solubility in water (30°C): 5 mg/mL |
